Test results from ChEMBL document CHEMBL1759982, “Hybrid compounds as new Bcr/Abl inhibitors” (Bioorg Med Chem Lett, 2011).
Blank lines part the entries; values can stand above or below the compound they belong to. Calls of active or inactive are those of the source. No cut-off for these calls is given here.

Experiments:
[1] = target: Bcr/Abl fusion protein (Homo sapiens, UniProt P00519); assay: Inhibition of Bcr/Abl by FRET-based Z-lyte assay; type: protein assay
[2] = Antiproliferative activity against human KU812 cells; type: functional, cell-based
[3] = tested on: K562; assay: Antiproliferative activity against human K562 cells; type: functional, cell-based
[4] = tested on: K562; assay: Antiproliferative activity against human imatinib-resistant K562 cells; type: functional, cell-based
[5] = tested on: K562; assay: Induction of apoptosis in human K562 cells assessed as pre-necrotic cells at 100 nM using annexin V-propidium iodide and annexin V staining by flow cytometry (reference value: 1.42%); type: functional
[6] = target: Bcr/Abl fusion protein (Homo sapiens) (UniProt P00519+P11274); assay: Inhibition of Bcr/Abl autophosphorylation in human K562 cells after 4 hrs by Western blotting; type: cell-based
[7] = tested on: K562; assay: Induction of apoptosis in human K562 cells assessed as late apoptotic cells at 100 nM using annexin V-propidium iodide and annexin V staining by flow cytometry (reference value: […]%); type: functional
[8] = tested on: K562; assay: Cell cycle arrest in human K562 cells assessed as accumulation at G2/M1 phase at 20 nM by Flow cytometry (reference value: 4.43%); type: functional
[9] = tested on: K562; assay: Cell cycle arrest in human K562 cells assessed as accumulation at G2/M1 phase at 50 nM by Flow cytometry (reference value: 4.43%); type: functional
[10] = tested on: K562; assay: Induction of apoptosis in human K562 cells assessed as viable cells at 20 nM using annexin V-propidium iodide and annexin V staining by flow cytometry (reference value: 87.02%); type: functional; conditions: read-out: Activity
[11] = tested on: K562; assay: Cell cycle arrest in human K562 cells assessed as accumulation at G0/G1 phase at 50 nM by Flow cytometry (reference value: 49.42%); type: functional
[12] = tested on: K562; assay: Induction of apoptosis in human K562 cells assessed as early apoptotic cells at 100 nM using annexin V-propidium iodide and annexin V staining by flow cytometry (reference value: 3.34%); type: functional
[13] = tested on: K562; assay: Cell cycle arrest in human K562 cells assessed as accumulation at S phase at 20 nM by Flow cytometry (reference value: 46.15%); type: functional
[14] = tested on: K562; assay: Cell cycle arrest in human K562 cells assessed as accumulation at G0/G1 phase at 100 nM by Flow cytometry (reference value: 49.42%); type: functional
[15] = tested on: K562; assay: Cell cycle arrest in human K562 cells assessed as accumulation at G0/G1 phase at 20 nM by Flow cytometry (reference value: 49.42%); type: functional
[16] = tested on: K562; assay: Induction of apoptosis in human K562 cells assessed as viable cells at 100 nM using annexin V-propidium iodide and annexin V staining by flow cytometry (reference value: 87.02%); type: functional; conditions: read-out: Activity
[17] = tested on: K562; assay: Cell cycle arrest in human K562 cells assessed as accumulation at S phase at 100 nM by Flow cytometry (reference value: 46.15%); type: functional
[18] = tested on: K562; assay: Induction of apoptosis in human K562 cells assessed as late apoptotic cells at 20 nM using annexin V-propidium iodide and annexin V staining by flow cytometry (reference value: […]%); type: functional
[19] = tested on: K562; assay: Induction of apoptosis in human K562 cells assessed as pre-necrotic cells at 20 nM using annexin V-propidium iodide and annexin V staining by flow cytometry (reference value: 1.42%); type: functional
[20] = tested on: K562; assay: Induction of apoptosis in human K562 cells assessed as late apoptotic cells at 50 nM using annexin V-propidium iodide and annexin V staining by flow cytometry (reference value: […]%); type: functional
[21] = tested on: K562; assay: Induction of apoptosis in human K562 cells assessed as viable cells at 50 nM using annexin V-propidium iodide and annexin V staining by flow cytometry (reference value: 87.02%); type: functional; conditions: read-out: Activity
[22] = tested on: K562; assay: Induction of apoptosis in human K562 cells assessed as early apoptotic cells at 50 nM using annexin V-propidium iodide and annexin V staining by flow cytometry (reference value: 3.34%); type: functional
[23] = tested on: K562; assay: Induction of apoptosis in human K562 cells assessed as pre-necrotic cells at 50 nM using annexin V-propidium iodide and annexin V staining by flow cytometry (reference value: 1.42%); type: functional
[24] = tested on: K562; assay: Induction of apoptosis in human K562 cells assessed as early apoptotic cells at 20 nM using annexin V-propidium iodide and annexin V staining by flow cytometry (reference value: 3.34%); type: functional
[25] = tested on: K562; assay: Cell cycle arrest in human K562 cells assessed as accumulation at S phase at 50 nM by Flow cytometry (reference value: 46.15%); type: functional
[26] = tested on: K562; assay: Cell cycle arrest in human K562 cells assessed as accumulation at G2/M1 phase at 100 nM by Flow cytometry (reference value: 4.43%); type: functional

Sequence of Bcr/Abl fusion protein (P00519 whole entry, the tested form may be a part): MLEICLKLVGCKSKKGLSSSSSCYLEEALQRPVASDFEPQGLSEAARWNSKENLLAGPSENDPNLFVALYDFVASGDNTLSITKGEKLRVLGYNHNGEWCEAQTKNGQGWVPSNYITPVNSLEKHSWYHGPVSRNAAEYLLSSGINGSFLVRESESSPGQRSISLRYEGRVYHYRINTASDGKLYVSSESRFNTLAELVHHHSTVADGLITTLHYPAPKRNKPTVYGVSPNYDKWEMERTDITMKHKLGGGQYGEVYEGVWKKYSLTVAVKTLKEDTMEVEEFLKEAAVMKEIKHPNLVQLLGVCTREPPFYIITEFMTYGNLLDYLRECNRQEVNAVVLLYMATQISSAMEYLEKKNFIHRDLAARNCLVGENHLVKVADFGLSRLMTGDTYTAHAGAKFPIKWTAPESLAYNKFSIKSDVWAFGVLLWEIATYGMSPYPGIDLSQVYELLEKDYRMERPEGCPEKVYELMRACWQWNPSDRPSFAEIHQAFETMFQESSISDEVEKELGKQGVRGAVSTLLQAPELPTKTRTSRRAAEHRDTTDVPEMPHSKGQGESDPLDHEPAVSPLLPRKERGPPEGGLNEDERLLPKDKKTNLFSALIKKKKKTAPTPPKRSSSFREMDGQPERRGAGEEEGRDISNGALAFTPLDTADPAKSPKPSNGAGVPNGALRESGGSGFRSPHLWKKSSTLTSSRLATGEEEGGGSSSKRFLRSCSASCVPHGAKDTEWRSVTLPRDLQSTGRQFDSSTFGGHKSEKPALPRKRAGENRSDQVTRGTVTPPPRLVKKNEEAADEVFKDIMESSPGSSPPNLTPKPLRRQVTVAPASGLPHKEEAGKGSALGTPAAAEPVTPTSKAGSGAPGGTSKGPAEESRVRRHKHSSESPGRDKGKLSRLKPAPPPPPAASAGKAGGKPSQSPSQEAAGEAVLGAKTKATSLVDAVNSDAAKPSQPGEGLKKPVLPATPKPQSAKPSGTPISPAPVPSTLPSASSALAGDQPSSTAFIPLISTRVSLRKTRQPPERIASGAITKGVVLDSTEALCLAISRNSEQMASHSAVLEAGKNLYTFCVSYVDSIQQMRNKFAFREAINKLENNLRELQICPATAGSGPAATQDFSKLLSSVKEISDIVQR
Sequence of Bcr/Abl fusion protein (P11274 whole entry, further chain, the tested form may be a part): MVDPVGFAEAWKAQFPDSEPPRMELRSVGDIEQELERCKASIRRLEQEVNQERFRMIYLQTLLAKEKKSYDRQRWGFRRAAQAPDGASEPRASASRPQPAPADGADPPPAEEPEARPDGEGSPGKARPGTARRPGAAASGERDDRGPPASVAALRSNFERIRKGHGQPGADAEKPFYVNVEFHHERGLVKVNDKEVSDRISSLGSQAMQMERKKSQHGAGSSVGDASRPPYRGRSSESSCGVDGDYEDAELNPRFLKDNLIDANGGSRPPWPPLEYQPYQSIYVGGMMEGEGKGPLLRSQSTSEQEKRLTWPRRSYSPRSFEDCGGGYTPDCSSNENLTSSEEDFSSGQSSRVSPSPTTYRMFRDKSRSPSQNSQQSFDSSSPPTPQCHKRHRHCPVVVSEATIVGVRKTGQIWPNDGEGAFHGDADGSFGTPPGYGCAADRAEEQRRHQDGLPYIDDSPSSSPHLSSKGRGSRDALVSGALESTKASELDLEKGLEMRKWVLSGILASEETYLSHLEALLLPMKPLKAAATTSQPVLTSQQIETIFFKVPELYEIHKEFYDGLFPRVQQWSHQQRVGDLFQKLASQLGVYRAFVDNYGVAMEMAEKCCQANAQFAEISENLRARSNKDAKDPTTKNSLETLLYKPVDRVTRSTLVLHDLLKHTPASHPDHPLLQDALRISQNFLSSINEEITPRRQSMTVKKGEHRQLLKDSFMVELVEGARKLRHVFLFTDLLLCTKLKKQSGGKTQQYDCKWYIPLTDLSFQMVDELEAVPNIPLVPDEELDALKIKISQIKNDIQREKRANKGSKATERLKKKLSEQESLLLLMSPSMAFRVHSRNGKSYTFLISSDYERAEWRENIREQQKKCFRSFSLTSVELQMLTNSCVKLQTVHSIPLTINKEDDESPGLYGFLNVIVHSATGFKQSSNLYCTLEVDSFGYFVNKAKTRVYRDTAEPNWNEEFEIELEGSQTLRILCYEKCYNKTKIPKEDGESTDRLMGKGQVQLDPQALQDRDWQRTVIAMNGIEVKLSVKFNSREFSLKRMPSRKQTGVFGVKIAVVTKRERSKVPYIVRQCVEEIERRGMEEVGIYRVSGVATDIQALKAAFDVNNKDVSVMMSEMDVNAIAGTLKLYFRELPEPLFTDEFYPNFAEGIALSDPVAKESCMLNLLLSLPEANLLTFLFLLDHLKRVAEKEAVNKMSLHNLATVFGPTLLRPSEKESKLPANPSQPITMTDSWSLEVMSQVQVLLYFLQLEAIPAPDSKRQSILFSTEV
Sequence of Bcr/Abl fusion protein (Homo sapiens) (P00519 whole entry, looked up, the tested form may be a part): as the sequence (P00519 whole entry, the tested form may be a part) above
Sequence of Bcr/Abl fusion protein (Homo sapiens) (P11274 whole entry, looked up, the tested form may be a part): as the sequence (P11274 whole entry, further chain, the tested form may be a part) above

- IC50 [1]: 1.3 µM
- IC50 [3]: 0.812 µM
- IC50 [4]: 2.36 µM
SMILES: Cc1cn(-c2cc(Cl)cc(NC(=O)c3ccc(C)c(Nc4nc(-c5cccnc5)cs4)c3)c2)cn1
- IC50 [2]: 0.518 µM

- IC50 [1]: 0.507 µM
- IC50 [3]: 0.028 µM
- IC50 [4]: 2.14 µM
SMILES: Cc1ccc(C(=O)Nc2cc(-n3ccnc3)cc(C(F)(F)F)c2)cc1Nc1nc(-c2cccnc2)cs1
- IC50 [2]: 0.036 µM

- IC50 [3]: 0.38 µM
- IC50 [4]: 0.00605 µM
SMILES: Cc1ccc(NC(=O)c2ccc(CN3CCN(C)CC3)cc2)cc1Nc1nccc(-c2cccnc2)n1 [IMATINIB]
- IC50 [2]: 0.337 µM

- IC50 [1]: 0.48 µM
- IC50 [3]: 0.026 µM
- IC50 [4]: 1.63 µM
SMILES: Cc1ncn(-c2cc(NC(=O)c3ccc(C)c(Nc4nc(-c5cccnc5)cs4)c3)cc(C(F)(F)F)c2)n1
- IC50 [2]: 0.038 µM

- IC50 [1]: 5.51 µM
- IC50 [3]: 1.6 µM
- IC50 [4]: 2.72 µM
SMILES: CCc1ccc(C(=O)Nc2cc(-n3cnc(C)c3)cc(C(F)(F)F)c2)cc1Nc1nc(-c2cccnc2)cs1
- IC50 [2]: 0.945 µM

- IC50 [3]: 0.0065 µM
- IC50 [4]: 0.26 µM
SMILES: Cc1cn(-c2cc(NC(=O)c3ccc(C)c(Nc4nccc(-c5cccnc5)n4)c3)cc(C(F)(F)F)c2)cn1 [NILOTINIB]
- IC50 [2]: 0.0034 µM

Continued, compound first:

SMILES: Cc1cn(-c2cc(NC(=O)c3cccc(Nc4nc(-c5cccnc5)cs4)c3)cc(C(F)(F)F)c2)cn1
- IC50 [1]: 3.78 µM
- IC50 [2]: 2.73 µM
- IC50 [3]: 3.19 µM
- IC50 [4]: 1.72 µM

SMILES: Cc1cn(-c2cc(NC(=O)c3ccc(C)c(Nc4nc(-c5cccnc5)cs4)c3)cc(C34CC5CC(CC(C5)C3)C4)c2)cn1
- IC50 [1]: > 2 µM
- IC50 [2]: 2.81 µM
- IC50 [3]: 1.06 µM
- IC50 [4]: 11.8 µM

SMILES: Cc1ccc(C(=O)Nc2cc(-c3cn(C)nn3)cc(C(F)(F)F)c2)cc1Nc1nc(-c2cccnc2)cs1
- IC50 [1]: 0.277 µM
- IC50 [2]: 0.09 µM
- IC50 [3]: 0.057 µM
- IC50 [4]: 3.51 µM

SMILES: Cc1cn(-c2cc(NC(=O)c3ccc(C)c(Nc4nc(-c5cccnc5)cs4)c3)cc(C(C)C)c2)cn1
- IC50 [1]: 0.177 µM
- IC50 [2]: 0.051 µM
- IC50 [3]: 0.031 µM
- IC50 [4]: 2.91 µM

SMILES: Cc1cc(NC(=O)c2ccc(C)c(Nc3nc(-c4cccnc4)cs3)c2)cc(-n2cnc(C)c2)c1
- IC50 [1]: 0.774 µM
- IC50 [2]: 0.871 µM
- IC50 [3]: 0.449 µM
- IC50 [4]: 3.29 µM

SMILES: Cc1ccc(C(=O)Nc2cccc(C(F)(F)F)c2)cc1Nc1nc(-c2cccnc2)cs1
- IC50 [1]: > 10 µM
- IC50 [2]: 1.24 µM
- IC50 [3]: 3 µM
- IC50 [4]: 1.44 µM

SMILES: Cc1ccc(C(=O)Nc2cc(-c3cnn(C)c3)cc(C(F)(F)F)c2)cc1Nc1nc(-c2cccnc2)cs1
- IC50 [1]: 0.491 µM
- IC50 [2]: 0.0271 µM
- IC50 [3]: 0.027 µM
- IC50 [4]: 5.38 µM

SMILES: Cc1cn(-c2cc(NC(=O)c3ccc(C)c(Nc4nc(-c5cccnc5)cs4)c3)cc(C(C)(C)C)c2)cn1
- IC50 [1]: 0.0201 µM
- Activity [5]: 5.18%
- inhibition [6]: Active
- Activity [7]: 27.04%
- Activity [8]: 2.15%
- Activity [9]: 0.21%
- viability at 0.02 µM [10]: 95.7%
- Activity [11]: 69.3%
- Activity [12]: 11.11%
- IC50 [2]: 0.011 µM
- Activity [13]: 42.66%
- Activity [14]: 75.53%
- Activity [15]: 55.19%
- viability at 0.1 µM [16]: 56.7%
- Activity [17]: 24.47%
- Activity [18]: 8.15%
- Activity [19]: 1.14%
- IC50 [3]: 0.01 µM
- Activity [20]: 16.34%
- IC50 [4]: 0.64 µM
- viability at 0.05 µM [21]: 73.8%
- Activity [22]: 6.87%
- Activity [23]: 3.11%
- Activity [24]: 5.06%
- Activity [25]: 30.45%
- Activity [26]: 0%

SMILES: Cc1cn(-c2cc(NC(=O)c3ccc(C)c(Nc4nc(-c5cccnc5)cs4)c3)cc(C(F)(F)F)c2)cn1
- IC50 [1]: 0.671 µM
- IC50 [2]: 0.03 µM
- IC50 [3]: 0.028 µM
- IC50 [4]: 1.83 µM
